Measurements published in ChEMBL document CHEMBL1201862, “PubChem BioAssay data set” (2004).
Calls of active or inactive are those of the source.

Legend:
[1] = molecular target: 26S proteasome non-ATPase regulatory subunit 14 (Homo sapiens, UniProt O00487); experiment: inhibition of proteasome subunit RPN11 – biochemical, fluorescence polarization, uHTS hits, confirmation (AID 602368); assay type: functional
[2] = molecular target: 72 kDa type IV collagenase (Homo sapiens, UniProt P08253); experiment: Dose Response validation of uHTS RPN11 inhibitor hits using a MMP-2 Fluorescence assay.; assay type: functional
Prothrombin = Prothrombin (Bos taurus, UniProt P00735); experiment: thrombin inhibition, dose response, biochemical, fluorescence polarization, uHTS hits (AID 602369); assay type: functional
[3] = molecular target: Peroxisome proliferator-activated receptor gamma/Nuclear receptor coactivator 1 (Homo sapiens, UniProt P37231); experiment: (§1) TR-FRET dose response biochemical High Throughput Screening assay for agonists of the steroid receptor coactivator 1 (SRC-1) recruitment by the peroxisome proliferator-activated receptor gamma (PPAR gamma): non-selective agonists. [Related pubchem assays (depositor defined):AID1300, AID1808, AID504735, AID631]; assay type: protein assay
[4] = molecular target: Peroxisome proliferator-activated receptor gamma/Nuclear receptor coactivator 3 (Homo sapiens, UniProt P37231); experiment: as §1, with “3 (SRC-3)” for “1 (SRC-1)”, “assays: 1301 (Confirmation screen.), 1048 (Primary screen.)]” for “assays (depositor defined):AID1300, AID1808, AID504735, AID631]”; assay type: functional
[5] = molecular target: Peroxisome proliferator-activated receptor gamma/Nuclear receptor coactivator 2 (Homo sapiens, UniProt P37231); experiment: TR-FRET dose response biochemical High Throughput Screening assay for agonists of the steroid receptor coactivator 2 (SRC-2) recruitment by the peroxisome proliferator-activated receptor gamma (PPAR gamma): non-selective agonists. [Related pubchem assays: 1297, 1032 ]; assay type: functional
Vero = experiment: cells; assay type: functional; conditions: Chlorocebus sabaeus
BJ [6] = experiment: cytotoxicity toward BJ-TERT-LT-ST fibroblasts, dose response, cell-based, RAS-independent, luminescence (AID 1935); assay type: functional; conditions: Homo sapiens;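 also: BJ fibroblasts immortalized with TERT plus LT and ST oncogenes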
BJ [7] = experiment: cytotoxicity toward Ras-transformed BJeLR fibroblasts, dose response, cell-based, alamar blue fluorescence, cherrypicked samples (AID 2631); assay type: functional; conditions: Homo sapiens;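 also: confirmatory dose-response assay in RAS-dependent BJ fibroblasts engineered with TERT, LT and ST, with cytotoxicity read by fluorescence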
[8] = cytotoxicity toward DRD oncogenic fibroblasts, dose response, cell-based, non-viral oncogenic, luminescence (AID 1934); assay type: functional; conditions: Homo sapiens
BJ [9] = experiment: cells; assay type: functional, cell-based; conditions: Homo sapiens
BJ [10] = experiment: cytotoxicity toward BJ-TERT fibroblasts, dose response, cell-based, RAS-independent, luminescence (AID 1933); assay type: functional; conditions: Homo sapiens
Beta-galactosidase = Beta-galactosidase (Escherichia coli, UniProt Q8VNN2); experiment: PubChem AID 485352; assay type: functional
[11] = molecular target: T1, Type-1 angiotensin II receptor (Homo sapiens, UniProt P30556); experiment: AT1 receptor antagonists, dose response, selectivity assay for APJ receptor antagonist project, cell-based, uHTS hits (AID 463214); assay type: functional;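 also: antagonist potency against angiotensin II stimulated AT1 response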
T1 sequence (P30556 whole entry): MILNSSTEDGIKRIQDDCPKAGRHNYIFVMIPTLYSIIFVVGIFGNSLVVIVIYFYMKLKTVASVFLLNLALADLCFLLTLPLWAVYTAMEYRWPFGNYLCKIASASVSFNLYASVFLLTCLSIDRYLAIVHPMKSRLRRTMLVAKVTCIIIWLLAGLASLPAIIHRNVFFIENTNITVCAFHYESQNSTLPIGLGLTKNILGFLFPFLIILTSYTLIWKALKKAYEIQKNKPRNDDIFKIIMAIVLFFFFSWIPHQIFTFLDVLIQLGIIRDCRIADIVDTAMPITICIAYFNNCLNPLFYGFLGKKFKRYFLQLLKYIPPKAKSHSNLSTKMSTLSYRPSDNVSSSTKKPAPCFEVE

[12] = molecular target: G-protein coupled receptor 55 (Homo sapiens, UniProt Q9Y2T6); experiment: GPR55 agonists via beta-arrestin recruitment, primary screen, imaging, U2OS cells, beta-arrestin-GFP redistribution (AID 1961); assay type: functional
[13] = growth suppression of PTEN-null colon cells, dose response, cell-based, HCT116 PTEN knockout (AID 1047); assay type: functional;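 also: HCT116 colon tumor cells with PTEN knocked out; cells exposed to compound for 60 hours before readout; potency for loss of cell viability measured by luminescence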
[14] = growth suppression of beta-catenin-knockout colon cells, dose response, cell-based, HCT116, human colon tumor (AID 1045); assay type: functional;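 also: HCT116 colon tumor cells with beta catenin knocked out; cells exposed to compound for 60 hours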
Cytochrome P450 2C9 = Cytochrome P450 2C9 (Homo sapiens, UniProt P11712)
[15] = microbe, parasite or virus in culture; assay type: functional; conditions: Mycobacterium tuberculosis
HEK293 [16] = experiment: cells; assay type: functional, cell-based; conditions: Homo sapiens
HEK293 [17] = experiment: NOD2 signaling inhibitors in MDP-stimulated cells, cell-based, uHTS, luminescence (AID 2001); assay type: functional; conditions: Homo sapiens
HEK293 [18] = experiment: cells; assay type: functional, cell-based; conditions: Homo sapiens; remark: listed apart in the source
HEK293 [19] = experiment: NOD1 signaling inhibitors, primary screen, cell-based, luminescence, uHTS (AID 1578); assay type: functional; conditions: Homo sapiens
[20] = molecular target: DNA dC->dU-editing enzyme APOBEC-3A (Homo sapiens, UniProt P31941); experiment: APOBEC3A DNA deaminase inhibitors, dose response, biochemical (AID 504722); assay type: functional
[21] = molecular target: DNA dC->dU-editing enzyme APOBEC-3G (Homo sapiens, UniProt Q9HC16); experiment: Dose Response confirmation of small molecule APOBEC3G DNA Deaminase Inhibitors via a fluorescence-based single-stranded DNA deaminase assay. [Related pubchem assays (depositor defined):AID493012, AID493028]; assay type: functional
H4 = experiment: Luminescence Cell-Based Dose Response HTS to Identify Activators of 5'UTR Stem-Loop Driven Prion Protein mRNA Translation in H4 Neuroglioblastoma Cells. [Related pubchem assays: 1829 (Project Summary), 1814 (Primary HTS)]; assay type: functional; conditions: Homo sapiens
[22] = Luminescence Cell-Based Dose Confirmation HTS to Identify Activators of 5'UTR Stem-Loop Driven Alpha-Synuclein mRNA Translation in H4 Neuroglioblastoma Cells. [Related pubchem assays: 1829 (Project Summary), 1814 (Primary HTS)]; assay type: functional
Aminopeptidase N = molecular target: T2, Aminopeptidase N (Plasmodium falciparum FcB1/Columbia, UniProt O96935); experiment: P. falciparum M1AAP inhibitors, biochemical, fluorogenic H-Leu-NHMec substrate, 1536-well (AID 1445); parameters: species or system Plasmodium falciparum 3D7, 3D7
T2 sequence (O96935 whole entry): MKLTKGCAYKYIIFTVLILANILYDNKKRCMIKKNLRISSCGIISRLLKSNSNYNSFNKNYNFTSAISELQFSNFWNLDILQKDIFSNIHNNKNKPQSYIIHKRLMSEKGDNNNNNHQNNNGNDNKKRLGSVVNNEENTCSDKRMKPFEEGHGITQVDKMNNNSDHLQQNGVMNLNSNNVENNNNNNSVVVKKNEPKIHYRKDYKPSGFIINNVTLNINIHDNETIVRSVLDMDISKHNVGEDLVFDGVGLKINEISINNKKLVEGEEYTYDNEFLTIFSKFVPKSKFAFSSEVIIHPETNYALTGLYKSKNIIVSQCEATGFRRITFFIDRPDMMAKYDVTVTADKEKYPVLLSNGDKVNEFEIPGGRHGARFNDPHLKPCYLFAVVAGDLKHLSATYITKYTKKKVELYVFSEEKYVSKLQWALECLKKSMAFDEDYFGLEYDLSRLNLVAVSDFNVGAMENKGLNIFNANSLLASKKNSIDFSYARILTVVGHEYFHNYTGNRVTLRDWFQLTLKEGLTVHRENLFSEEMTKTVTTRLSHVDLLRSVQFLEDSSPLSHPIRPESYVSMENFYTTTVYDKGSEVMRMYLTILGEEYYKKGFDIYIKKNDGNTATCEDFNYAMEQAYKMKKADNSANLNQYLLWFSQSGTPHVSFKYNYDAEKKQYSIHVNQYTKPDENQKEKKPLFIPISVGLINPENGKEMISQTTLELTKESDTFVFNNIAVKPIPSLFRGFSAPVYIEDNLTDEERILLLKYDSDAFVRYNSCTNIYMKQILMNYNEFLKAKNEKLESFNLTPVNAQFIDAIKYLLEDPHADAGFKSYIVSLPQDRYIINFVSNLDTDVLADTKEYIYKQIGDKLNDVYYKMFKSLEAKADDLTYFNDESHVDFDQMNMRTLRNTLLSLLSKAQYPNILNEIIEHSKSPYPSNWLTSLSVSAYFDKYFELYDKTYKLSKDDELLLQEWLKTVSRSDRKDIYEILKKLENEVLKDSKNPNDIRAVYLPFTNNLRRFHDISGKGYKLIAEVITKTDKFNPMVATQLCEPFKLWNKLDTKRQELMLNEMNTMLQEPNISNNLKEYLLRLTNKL

[23] = Luminescence Cell-Based Dose Response HTS to Identify Activators of Luciferase Translation or Activity in H4 […] Cells. [Related pubchem assays: 1829 (Project Summary), 1814 (Primary HTS)]; assay type: functional
SN12K1 = experiment: cells; assay type: functional; conditions: Homo sapiens
INS1 = experiment: beta cell apoptosis inhibitors, cytokine rescue, dose response, luminescence, retest (AID 449756); assay type: functional, cell-based; conditions: Rattus norvegicus;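 also: cell death triggered by IL-1 beta plus TNF-alpha plus IFN-gamma mixture; protective hits raise ATP signal compared with cytokine alone wells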
[24] = molecular target: Heat shock protein HSP 90-alpha (Homo sapiens, UniProt P07900); assay type: functional, organism-based

DNA dC->dU-editing enzyme APOBEC-3G, sequence (Q9HC16 whole entry): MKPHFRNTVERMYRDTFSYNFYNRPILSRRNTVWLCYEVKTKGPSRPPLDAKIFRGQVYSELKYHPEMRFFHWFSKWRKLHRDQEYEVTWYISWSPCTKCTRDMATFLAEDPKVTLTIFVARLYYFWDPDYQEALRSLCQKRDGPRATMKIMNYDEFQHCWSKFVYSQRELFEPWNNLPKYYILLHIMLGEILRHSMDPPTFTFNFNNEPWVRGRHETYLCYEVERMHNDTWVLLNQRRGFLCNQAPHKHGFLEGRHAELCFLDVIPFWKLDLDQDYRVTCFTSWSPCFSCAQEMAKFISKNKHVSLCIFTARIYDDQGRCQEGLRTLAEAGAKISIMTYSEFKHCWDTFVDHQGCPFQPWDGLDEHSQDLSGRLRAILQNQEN
Peroxisome proliferator-activated receptor gamma/Nuclear receptor coactivator 1, sequence (P37231 whole entry): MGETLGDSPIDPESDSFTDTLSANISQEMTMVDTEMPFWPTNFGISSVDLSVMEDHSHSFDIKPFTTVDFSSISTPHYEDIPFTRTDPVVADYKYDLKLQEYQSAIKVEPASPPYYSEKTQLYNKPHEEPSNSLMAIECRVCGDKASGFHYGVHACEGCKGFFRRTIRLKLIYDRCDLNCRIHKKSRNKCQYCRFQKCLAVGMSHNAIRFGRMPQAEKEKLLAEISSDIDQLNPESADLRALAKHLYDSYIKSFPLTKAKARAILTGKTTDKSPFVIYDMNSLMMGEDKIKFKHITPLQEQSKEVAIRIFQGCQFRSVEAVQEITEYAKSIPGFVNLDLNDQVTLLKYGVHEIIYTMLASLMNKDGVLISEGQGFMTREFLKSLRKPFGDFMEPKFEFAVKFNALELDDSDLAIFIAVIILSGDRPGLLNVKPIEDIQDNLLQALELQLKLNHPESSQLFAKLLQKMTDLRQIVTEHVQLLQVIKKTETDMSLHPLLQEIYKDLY
Peroxisome proliferator-activated receptor gamma/Nuclear receptor coactivator 1, sequence (Q15788 whole entry, further chain): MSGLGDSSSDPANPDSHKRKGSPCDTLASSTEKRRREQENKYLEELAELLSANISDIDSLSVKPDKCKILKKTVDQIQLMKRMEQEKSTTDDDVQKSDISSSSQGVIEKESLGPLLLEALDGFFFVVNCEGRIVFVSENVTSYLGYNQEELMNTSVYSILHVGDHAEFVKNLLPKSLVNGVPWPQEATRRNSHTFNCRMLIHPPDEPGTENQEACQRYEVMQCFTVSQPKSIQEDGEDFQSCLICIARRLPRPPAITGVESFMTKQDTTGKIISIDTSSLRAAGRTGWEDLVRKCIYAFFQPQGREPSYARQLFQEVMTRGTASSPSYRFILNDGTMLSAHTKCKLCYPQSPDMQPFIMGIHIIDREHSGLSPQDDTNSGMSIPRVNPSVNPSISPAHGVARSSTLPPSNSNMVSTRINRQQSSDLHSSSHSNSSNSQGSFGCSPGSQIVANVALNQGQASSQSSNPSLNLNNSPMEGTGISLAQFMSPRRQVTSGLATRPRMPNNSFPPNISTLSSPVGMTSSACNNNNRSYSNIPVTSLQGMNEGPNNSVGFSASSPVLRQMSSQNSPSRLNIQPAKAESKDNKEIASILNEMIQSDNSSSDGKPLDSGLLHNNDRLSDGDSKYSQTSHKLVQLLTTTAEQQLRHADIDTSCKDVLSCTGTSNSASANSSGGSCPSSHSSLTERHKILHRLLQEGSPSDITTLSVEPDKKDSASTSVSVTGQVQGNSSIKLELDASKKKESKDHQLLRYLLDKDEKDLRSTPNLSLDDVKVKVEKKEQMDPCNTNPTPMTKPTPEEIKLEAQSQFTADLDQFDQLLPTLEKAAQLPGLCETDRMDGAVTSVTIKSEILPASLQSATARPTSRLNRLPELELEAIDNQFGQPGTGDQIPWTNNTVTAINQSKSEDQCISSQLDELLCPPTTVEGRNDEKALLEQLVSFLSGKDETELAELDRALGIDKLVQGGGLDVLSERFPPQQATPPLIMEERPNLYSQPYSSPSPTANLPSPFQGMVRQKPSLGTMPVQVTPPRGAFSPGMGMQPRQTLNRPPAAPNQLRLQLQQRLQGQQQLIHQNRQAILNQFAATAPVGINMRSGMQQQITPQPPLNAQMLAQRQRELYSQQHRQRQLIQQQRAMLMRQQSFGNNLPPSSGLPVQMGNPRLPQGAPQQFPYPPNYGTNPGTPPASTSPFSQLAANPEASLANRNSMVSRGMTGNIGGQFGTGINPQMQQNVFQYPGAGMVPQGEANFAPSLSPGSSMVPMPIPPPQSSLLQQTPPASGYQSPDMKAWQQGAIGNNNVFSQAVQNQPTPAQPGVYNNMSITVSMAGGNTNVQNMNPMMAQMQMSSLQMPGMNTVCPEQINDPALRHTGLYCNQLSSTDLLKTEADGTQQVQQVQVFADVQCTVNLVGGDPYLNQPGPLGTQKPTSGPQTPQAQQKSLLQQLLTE
Peroxisome proliferator-activated receptor gamma/Nuclear receptor coactivator 3, sequence (P37231 whole entry): as the sequence (P37231 whole entry) above
Peroxisome proliferator-activated receptor gamma/Nuclear receptor coactivator 3, sequence (Q9Y6Q9 whole entry, further chain): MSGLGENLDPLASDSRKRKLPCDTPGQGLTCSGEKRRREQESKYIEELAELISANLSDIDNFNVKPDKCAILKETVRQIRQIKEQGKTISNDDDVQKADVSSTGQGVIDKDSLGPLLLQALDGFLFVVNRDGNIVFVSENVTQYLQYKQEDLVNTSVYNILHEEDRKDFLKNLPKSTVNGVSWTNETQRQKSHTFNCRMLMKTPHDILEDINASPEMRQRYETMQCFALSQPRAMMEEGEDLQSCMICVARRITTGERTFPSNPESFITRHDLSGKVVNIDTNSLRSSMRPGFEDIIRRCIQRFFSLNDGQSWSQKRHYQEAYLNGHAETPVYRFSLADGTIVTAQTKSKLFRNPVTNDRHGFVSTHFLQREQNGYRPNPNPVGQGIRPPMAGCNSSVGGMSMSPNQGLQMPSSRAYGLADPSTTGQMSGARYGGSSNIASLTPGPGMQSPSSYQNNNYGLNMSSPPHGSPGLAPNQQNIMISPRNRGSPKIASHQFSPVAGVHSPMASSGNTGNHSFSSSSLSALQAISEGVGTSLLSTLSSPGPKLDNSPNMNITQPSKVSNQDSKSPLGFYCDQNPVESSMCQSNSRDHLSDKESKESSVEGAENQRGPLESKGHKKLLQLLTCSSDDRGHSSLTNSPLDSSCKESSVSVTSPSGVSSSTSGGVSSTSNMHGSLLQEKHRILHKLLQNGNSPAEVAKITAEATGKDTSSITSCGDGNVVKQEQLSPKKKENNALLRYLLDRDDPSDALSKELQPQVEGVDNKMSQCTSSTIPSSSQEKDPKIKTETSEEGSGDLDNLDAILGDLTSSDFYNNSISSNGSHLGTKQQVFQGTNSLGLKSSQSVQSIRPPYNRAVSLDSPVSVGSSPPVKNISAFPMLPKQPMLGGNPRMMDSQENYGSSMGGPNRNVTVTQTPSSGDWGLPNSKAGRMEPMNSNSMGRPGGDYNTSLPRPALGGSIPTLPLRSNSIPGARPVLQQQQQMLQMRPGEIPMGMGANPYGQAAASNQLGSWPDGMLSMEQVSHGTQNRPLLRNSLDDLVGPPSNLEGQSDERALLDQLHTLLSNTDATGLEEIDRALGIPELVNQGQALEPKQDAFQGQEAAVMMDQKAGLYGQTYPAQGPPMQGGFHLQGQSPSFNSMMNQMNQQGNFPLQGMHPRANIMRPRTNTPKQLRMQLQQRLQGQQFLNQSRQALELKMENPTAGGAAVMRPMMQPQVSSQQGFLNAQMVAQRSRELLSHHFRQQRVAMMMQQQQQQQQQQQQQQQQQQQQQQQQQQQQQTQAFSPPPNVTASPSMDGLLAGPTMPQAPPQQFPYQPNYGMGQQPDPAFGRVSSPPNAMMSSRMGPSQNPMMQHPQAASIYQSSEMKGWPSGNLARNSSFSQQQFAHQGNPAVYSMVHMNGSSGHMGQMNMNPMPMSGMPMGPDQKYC
DNA dC->dU-editing enzyme APOBEC-3A, sequence (P31941 whole entry): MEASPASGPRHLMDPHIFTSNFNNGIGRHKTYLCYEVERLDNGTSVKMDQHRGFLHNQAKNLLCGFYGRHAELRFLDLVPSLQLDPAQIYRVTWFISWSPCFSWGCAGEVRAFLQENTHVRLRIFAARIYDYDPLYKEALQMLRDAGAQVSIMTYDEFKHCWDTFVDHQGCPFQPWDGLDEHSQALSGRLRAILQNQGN
G-protein coupled receptor 55, sequence (Q9Y2T6 whole entry): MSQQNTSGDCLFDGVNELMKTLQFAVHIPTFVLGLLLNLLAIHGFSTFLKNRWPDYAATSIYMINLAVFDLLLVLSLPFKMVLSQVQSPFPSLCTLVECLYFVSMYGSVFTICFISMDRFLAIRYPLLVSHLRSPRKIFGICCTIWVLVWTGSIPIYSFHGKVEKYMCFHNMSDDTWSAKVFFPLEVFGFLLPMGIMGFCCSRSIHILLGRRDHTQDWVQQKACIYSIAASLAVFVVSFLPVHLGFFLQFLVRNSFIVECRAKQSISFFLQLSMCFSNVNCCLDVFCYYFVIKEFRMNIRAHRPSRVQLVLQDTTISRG

## Cc1csc(NC(=O)CSc2nc3sc(C)c(C)c3c(=O)[nH]2)n1
[1]
  IC50: 24.3 µM (active)
[2]
  IC50: > 100 µM (inactive)
Prothrombin
  IC50: 43.6 µM (active)

## CCn1c(=O)cc(SCC(=O)N2CCN(Cc3ccc4c(c3)OCO4)CC2)c2ccccc21
[3]
  EC50: > 79.4 µM (inactive)
[4]
  EC50: > 79.4 µM (not active)
[5]
  EC50: > 79.4 µM (not active)

## CCc1cc(=O)oc2cc(C)cc(O)c12
[3]
  EC50: > 79.4 µM (inactive)
[4]
  EC50: > 79.4 µM (not active)
[5]
  EC50: 21.1 µM (not active)

## CC1CC(N(C(=O)c2ccc(Cl)cc2)c2ccccc2)c2ccccc2N1C(=O)c1ccco1 (configuration not stated)
Vero
  CC50: 15.1 µM (active)

## COc1ccccc1C1C2=C(O)OCC2=Nc2cc3c(cc21)OCO3 (configuration not stated)
BJ [6]
  EC50: 9.65 µM (inconclusive)
BJ [7]
  EC50: < 0.104 µM (active)
[8]
  EC50: 9.6 µM (inconclusive)
BJ [9]
  EC50: 15.2 µM (inconclusive)
BJ [10]
  EC50: 6.64 µM (inconclusive)

## Cc1ccc(OCC(=O)OCC(=O)c2cccc([N+](=O)[O-])c2)cc1C
Beta-galactosidase
  EC50: > 40 µM (inactive)
[11]
  IC50: > 40 µM (not active)

## CCCCC(=O)Nc1sc2c(c1C(=O)OCC)CCC(C=O)=C2Cl
[12]
  EC50: > 32 µM (inactive)
[13]
  EC50: 5.83 µM (active)
[14]
  EC50: 5.91 µM (active)
Cytochrome P450 2C9
  AC50: 7.94 µM (inconclusive)
[15]
  CC50: > 40 µM (active)

## CN(C)S(=O)(=O)c1ccc(C(=O)Nc2nc(-c3cc4ccccc4o3)cs2)cc1
HEK293 [16]
  IC50: 3.09 µM (active)
HEK293 [17]
  IC50: 2.85 µM (active)
HEK293 [18]
  IC50: > 20 µM (inactive)
HEK293 [19]
  EC50: > 20 µM (inactive)

## Cc1cc(-c2nnc(S)n2-c2ccc(C)c(C)c2)no1
[20]
  IC50: > 100 µM (inactive)
[21]
  IC50: 8.07 µM (active)

## C=CCn1c(=O)c2ccccc2n2c(S)nnc12
[20]
  IC50: > 100 µM (inactive)
[21]
  IC50: 2.61 µM (active)

## CCOc1ccc(CCNC(=O)CSc2cc(=O)n(C)c3ccccc23)cc1OCC
[3]
  EC50: > 79.4 µM (inactive)
[4]
  EC50: > 79.4 µM (not active)
[5]
  EC50: > 79.4 µM (not active)

## Cc1[nH]c(=S)c(C#N)c2c1CCCC2
[20]
  IC50: > 100 µM (inactive)
[21]
  IC50: 5.25 µM (active)

## CC(NC(=O)C1CCN(C(=O)c2cccs2)CC1)c1ccc(S(N)(=O)=O)cc1 (configuration not stated)
[1]
  IC50: 9.98 µM (active)
[2]
  IC50: > 100 µM (inactive)
Prothrombin
  IC50: > 100 µM (inactive)

## COc1ccc(NP(=O)(Oc2ccccc2OC)Oc2ccccc2OC)cc1
[3]
  EC50: > 79.4 µM (inactive)
[4]
  EC50: > 79.4 µM (not active)
[5]
  EC50: > 79.4 µM (not active)

## CN(C)CCCN(C(=O)c1cc(Cl)sc1Cl)c1nc2cc3c(cc2s1)OCO3
[12]
  EC50: > 32 µM (inactive)

## Cc1cc(C)n2nc(C(=O)NNC(=O)c3ccc(Cl)cc3)nc2n1
H4
  EC50: > 120 µM (not active)
[22]
  EC50: > 120 µM (not active)
Aminopeptidase N
  IC50: 15.9 µM (active)
[23]
  EC50: 12.7 µM (active)

## O=C(OCC(=O)c1ccc(Cl)cc1Cl)c1ccccn1
Beta-galactosidase
  EC50: > 40 µM (inactive)
[11]
  IC50: 35.9 µM (not active)

## Cc1cc(C)c2sc(N(CCN(C)C)C(=O)c3cc(Cl)sc3Cl)nc2c1
[12]
  EC50: 26.2 µM (inactive)

## COc1cccc(N2[C@@H](CC(C)=O)c3ccc(/C=C/C(C)=O)cc3S2(=O)=O)c1
Vero
  CC50: 17.9 µM (active)

## c1ccc(CN2CCc3[nH]c4ccccc4c3C2)cc1
SN12K1
  GI50: 15.2 µM (inactive)

## Cc1ccc(NS(=O)(=O)c2cc([N+](=O)[O-])ccc2N/N=C/c2sc(N3CCOCC3)nc2-c2ccccc2)c(C)c1
[12]
  EC50: < 0.5 µM (active)
Beta-galactosidase
  EC50: > 40 µM (inactive)
[11]
  IC50: > 40 µM (not active)
INS1
  AC50: 4.62 µM (active)

## Cc1ccc(/N=C/c2c(C)[nH]n(-c3nc4ccccc4[nH]3)c2=O)cc1
BJ [6]
  EC50: 3.62 µM (inconclusive)
BJ [7]
  EC50: > 133 µM (inactive)
[24]
  AC50: 5.84 µM (active)
[8]
  EC50: 2.83 µM (active)
BJ [9]
  EC50: 3.03 µM (active)
BJ [10]
  EC50: 2.84 µM (inconclusive)
INS1
  AC50: 1.42 µM (active)
